Assay [1] addresses T1, HvNTR2 (Hordeum vulgare, UniProt A9LN30).
T1 construct: gene NTR2; recombinant, E. coli Rosetta (DE3); FAD domain 1-126 and 255-331, NADPH domain 127-254; model residues 6-323 (A), 5-323 (B); homodimer
Description: X-ray crystal structure, […] A. Type of assay: binding. The conditions noted are these: crystals pH 3.5, 0.1 M citrate; one FAD per subunit in FAD domain, tightly bound.

The target of assay [2] is T1, HvNTR2. Description: bleaching of yellow HvNTR2 crystals (FAD reduction). Type of assay: biochemical. The conditions noted are these: 10 mM NADPH, 30 min, in crystals; NADPH not seen in the structure.

This is an account of results in paper PMC2733882, “Structure of Hordeum vulgare NADPH-dependent thioredoxin reductase 2. Unwinding the reaction mechanism” (Acta Crystallographica Section D: Biological Crystallography, 2009).

T1 sequence (A9LN30 1-331): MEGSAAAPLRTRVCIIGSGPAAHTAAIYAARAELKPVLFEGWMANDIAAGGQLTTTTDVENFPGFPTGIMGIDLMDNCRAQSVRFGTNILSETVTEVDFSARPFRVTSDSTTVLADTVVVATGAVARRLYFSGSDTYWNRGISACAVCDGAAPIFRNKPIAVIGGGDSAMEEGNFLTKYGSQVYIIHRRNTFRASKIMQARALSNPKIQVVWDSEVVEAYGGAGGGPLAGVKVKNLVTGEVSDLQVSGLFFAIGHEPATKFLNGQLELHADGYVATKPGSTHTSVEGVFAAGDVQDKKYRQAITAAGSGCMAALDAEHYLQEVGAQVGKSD

With `Cc1cc2nc3c(=O)[nH]c(=O)nc-3n(C[C@H](O)[C@H](O)[C@H](O)COP(=O)(O)OP(=O)(O)OC[C@H]3O[C@@H](n4cnc5c(N)ncnc54)[C@H](O)[C@@H]3O)c2cc1C` [FAD], the “X-ray crystal structure, 2.6 A” value at HvNTR2 [1] is given as “One FAD molecule with well defined electron density”. Consider `NC(=O)C1=CN([C@@H]2O[C@H](COP(=O)(O)OP(=O)(O)OC[C@H]3O[C@@H](n4cnc5c(N)ncnc54)[C@H](OP(=O)(O)O)[C@@H]3O)[C@@H](O)[C@H]2O)C=CC1` [NADPH], for which, at HvNTR2 [2], the “bleaching of yellow HvNTR2 crystals (FAD reduction)” value is “FAD can still be reduced by NADPH as judged from the bleaching”.
